{
  "source": "patent US20260226049A1",
  "about": "“NITROGEN-CONTAINING HETEROCYCLIC COMPOUND, PREPARATION METHOD THEREFOR, AND USE THEREOF” (BIVISION PHARMACEUTICALS, INC, priority 2023, published 2026)",
  "key": {"[1]": {"target": "T1, FAP protein (Homo sapiens, UniProt Q12884)", "T1 construct": "purchased Sinobiological", "T1 sequence (Q12884 1-760)": "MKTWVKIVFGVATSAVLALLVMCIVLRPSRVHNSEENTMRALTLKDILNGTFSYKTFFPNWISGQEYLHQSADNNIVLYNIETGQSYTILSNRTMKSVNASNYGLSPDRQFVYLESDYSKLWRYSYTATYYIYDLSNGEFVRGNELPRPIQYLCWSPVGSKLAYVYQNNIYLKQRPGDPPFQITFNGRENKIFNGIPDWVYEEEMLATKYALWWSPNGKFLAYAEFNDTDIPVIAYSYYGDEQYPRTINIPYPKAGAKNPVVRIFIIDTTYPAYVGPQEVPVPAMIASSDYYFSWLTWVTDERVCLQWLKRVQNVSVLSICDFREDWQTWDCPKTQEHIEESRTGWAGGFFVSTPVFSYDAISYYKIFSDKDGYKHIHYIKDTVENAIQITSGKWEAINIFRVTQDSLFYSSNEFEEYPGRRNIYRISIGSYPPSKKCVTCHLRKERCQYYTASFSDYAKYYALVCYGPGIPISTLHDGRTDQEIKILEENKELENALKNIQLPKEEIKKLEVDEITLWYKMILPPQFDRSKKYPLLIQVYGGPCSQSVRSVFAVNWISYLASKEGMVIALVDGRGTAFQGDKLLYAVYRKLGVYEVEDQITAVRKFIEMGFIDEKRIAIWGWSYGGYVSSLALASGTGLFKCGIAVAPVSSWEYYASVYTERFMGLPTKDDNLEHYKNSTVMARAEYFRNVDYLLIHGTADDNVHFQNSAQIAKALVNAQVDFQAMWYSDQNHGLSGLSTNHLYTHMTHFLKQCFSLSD", "assay": "Biacore test of ligand binding to FAP protein", "conditions": "FAP protein on SA chip, 15° C., 1:1 binding model", "method": "The Biacore 8K (Cytiva) instrument was used to detect ligand binding of the FAP protein (Sinobiological). The FAP protein was captured on the SA chip. Before ligand immobilization (flow paths 1 and 2, flow rate of 10 μL/min), the FAP protein (10 μg/mL, flow rate of 5 μL/min, injection time of 600 s) was immobilized on flow path 2 using running buffer, and the sensor surface was conditioned with three consecutive injections of 1 M NaCl in 50 mM NaOH. After each ligand injection, additional washing was carried out with isopropanol in 1 M NaCl and 50 mM NaOH (flow paths 1 and 2, flow rate of 10 μL/min, injection time of 60 s).\nThe test compounds were dissolved in 100% dimethyl sulfoxide and diluted to 10 mM, then further diluted in the assay buffer (PBS, pH 7.4, 1 mM TCEP ([…]), 0.05% P20, 2% dimethyl sulfoxide) to appropriate maximum concentrations. The analyte was run under the following conditions: analysis temperature=15° C., analysis step=all set to LMW kinetics; cycle type=single cycle (90 s contact time, 1800 s dissociation time, 30 μL/min flow rate, flow channels 1, 2); flow channel detection=2-1). Data evaluation was performed using Biacore Insight Evaluation Software, and the data were fitted to a 1:1 binding model.\nThe Biacore results are shown in Table 1: pKD=−Log KD, where KD is the binding affinity of the compound to the FAP protein as measured by Biacore. The binding affinity is expressed by KD (M)=Kd(1/s)/Ka(1/Ms). Where A: pKD>8, B: 7<pKD<8, C: 6<pKD<7, D: pKD<6."}, "[2]": {"system": "HT1080 8 #cells", "assay": "Cell competitive binding assay against ^177Lu-radiolabeled FAPi-46", "method": "(1) HT1080 8 #cells in the logarithmic growth phase were prepared into a cell suspension, and the cell density was adjusted to 1×10^4/mL. 1 mL of the suspension was seeded into a 24-well cell culture plate. The plate was incubated overnight in a 37° C. incubator.\n(2) The cell culture medium was aspirated, and the cells were washed once with PBS, followed by the addition of 975 μL of additive-free medium.\n(3) To each well, 25 µL of ^177Lu-radiolabeled FAPi-46 (Nanchang Tanzhen Biotechnology Co., Ltd., CAS: 2374782-04-2) at a fixed concentration (final concentration in culture medium: 1.35 μCi/mL) and varying concentrations (final concentrations in culture medium: 1000 ng/mL, 100 ng/ml, 10 ng/ml, 1 ng/mL, 0.1 ng/ml, 0.01 ng/mL, 0.001 ng/mL, 0 ng/ml) of unlabeled test compounds JHH8, JHDB8, and JHH9 were added.\n(4) The mixture was incubated on ice for 2 hours.\n(5) The cells were washed three times with ice-cold PBS.\n(6) The cells were lysed with 0.5 mL of 1 M sodium hydroxide, washed twice with 0.5 mL of PBS, and the sodium hydroxide solution (0.5 mL) and PBS solutions (0.5 mL×2) were collected for uptake counting.\nThe control compound was OncoFAP-DOTAGA (structural formula: […]\nThe cell competitive binding of compounds JHH5, JHH4, JHH10, JHH8, H4b, H5b, and H8b was tested in the same batch using the above method, and the experimental results are shown in Table 3 and FIG. 3."}},
  "note": "Where two headings read alike, the source gives them in different places.",
  "data": [
    {"smiles": "N#C[C@@H]1CC(F)(F)CN1C(=O)CNC(=O)c1cccc2c1CCN(C(=O)CCC(=O)NCCNC(=O)CCC(C(=O)O)N1CCN(CC(=O)O)CCN(CC(=O)O)CCN(CC(=O)O)CC1)C2", "note": "(stereo partly drawn) [JHH5]", "values": [
      {"measurement": "Kd", "setting": "[1]", "value": "< 10", "unit": "nM"},
      {"measurement": "EC50", "setting": "[2]; EC50 (ng/mL) converted with molecular weight, read-out: EC50", "value": 1.82, "unit": "nM"},
      {"measurement": "EC50", "setting": "[2]; competition with ^177Lu-FAPi-46, on ice 2 hours", "value": 1.726, "unit": "ng/mL"}
    ]}
  ]
}
